Earlier results in patent US6403086B1, “Administering extracts of morinda citrifolia, red wine, prune, blueberry, pomegranate, apple and an enzyme mixture” (priority 2001, dated 2002).

Conditions: supplementation with 30 IU to 100 IU

For vitamin E, the “lower risk of heart disease” value is given as 41%.
